pIC50: −log10 of the molar value. Bounds are passed on as bounds.

From PubChem BioAssay AID2060894 (Molecular Pharmacology Branch, DTP, NCI, 2025) come the findings set out here.

This assay has as its system K12877-001-R-J1-PDC complex spheroid viability. The assay can be described thus: Anticancer human tumor K12877-001-R-J1-PDC patient-derived lung adenocarcinoma cell line growth inhibition [RAS]. The conditions noted are these: for viability, T/C: stronger effect = lower value. An excerpt:
RAS pathway inhibitors in Combinations in Complex Spheroids
A high-throughput screen of multi-cell type tumor spheroids was designed to identify active combinations of RAS pathway inhibitors and targeted small molecules. Complex spheroids include a stromal component modeled by human endothelial cells (HUVEC) and fibroblasts modeled by human mesenchymal stem cells (MSCs). The concentration ranges selected for each drug and investigational agent were based upon clinically achievable concentrations if the clinical Cmax of the agent was known.
Compounds. The drugs and investigational agents: abemaciclib (NSC768073), cobimetinib (NSC768068), divarasib (GDC6063, NSC841802), docetaxel (NSC628503), GDC-1971 (RLY-1971, NSC841576), gemcitabine (NSC613327), inavolisib (NSC800729), ipatasertib (NSC767898), KB-0742 (NSC834161), MRTX-1133 (NSC836407), osimertinib (NSC779217), RMC-4630 (NSC839698), RMC-6236 (NSC851965), RMC-6291 (NSC852671), Ro-3306 (NSC812927), sapanisertib (NSC764658), SN-38 (NSC673596), staurosporine (NSC755774), SY5609 (NSC837396), and tovorafenib (DAY101, NSC766906), were obtained from the National Cancer Institute (NCI) Developmental Therapeutics Program Chemical Repository. The FDA-approved anticancer drug set is available from the NCI Developmental Therapeutics Program. […] The stock solutions were prepared in dimethyl sulfoxide (DMSO, Sigma-Aldrich, St. Louis, MO, cat. D2650) at 800-fold the tested concentration and stored at -70 degrees C prior to their use. All drugs and investigational agents were tested over a range starting from a high concentration at or near the clinical Cmax and decreasing in half-log increments. If the clinical Cmax for an agent had not been determined, the highest concentration tested was 10 microM.
Cell Culture. All cells were maintained in an incubator at 37 degrees C and 5% CO2 with 95% humidity. The PDC lines were cultured according to standard operating procedures established by the NCI PDMR. All PDCs were thawed and cultured in Matrigel-coated flasks prepared with a working solution of 1X Ham's F-12 nutrient mix, without supplementation (Invitrogen, Waltham, MA, cat. 11765054), 100 U/mL penicillin-streptomycin (Invitrogen, cat. 15140122), and 2.5% Matrigel (Corning Inc., Corning, NY, cat. 354248) for the first three passages. The 362531-283-R-J2-PDC and 782815-120-R-J1-PDC lines were cultured in 6C/Colon 1B media, which includes advanced DMEM/F-12 (Thermo Fisher Scientific, cat. 12634028), 10 mM HEPES (Thermo Fisher Scientific, cat. 15630080), 1X GlutaMAX supplement (Thermo Fisher Scientific, cat. 35050061), 0.1 mg/mL primocin (InvivoGen, San Diego, CA, cat. ant-pm-2), 10% defined fetal bovine serum, heat inactivated (HyClone Laboratories Inc., Logan, UT, cat. SH30070.03HI), 50% L-WRN conditioned media (ATCC, cat. CRL-3276), 1.25 mM N-Acetyl-L-cysteine (Sigma-Aldrich, cat. A9165), 10 mM nicotinamide (Sigma-Aldrich, cat. N0636), 1X B-27 supplement (Thermo Fisher Scientific, cat. 17504044), 1X N-2 supplement (Thermo Fisher Scientific, cat. 17502048), 50 ng/mL human EGF (Thermo Fisher Scientific, cat. PHG0311), and 10 microM Y-27632 dihydrochloride (Tocris Bioscience, cat. 1254). The K12877-001-R-J1-PDC line was cultured in 6I media, which includes all 6C/Colon 1B media plus 10 ng/mL human FGF-10 (PeproTech, cat. 100-26), 1 ng/mL human FGF-2 (PeproTech, cat. 100-18B), 1 µM prostaglandin E2 (Tocris Bioscience, cat. 2296), […] hydrocortisone (Sigma-Aldrich, cat. H4001), and […] bovine insulin (Sigma-Aldrich, cat. I6634). The K86415-001-R-J1-PDC line was cultured in 6D media, which includes all 6C/Colon 1B media components minus the L-WRN conditioned media. The 485176-168-R4-J1-PDC was cultured in PANC media, which includes all 6C/Colon 1B media plus 100 ng/mL human FGF-10 (PeproTech, cat. 100-26), 500 nM SB-431542 (Selleckchem, cat. S1067), and 10 nM gastrin (Tocris Bioscience, cat. 3006). […]
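Also: spheroids exposed to agents for one week before readout.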

For orientation: pIC50 means the negative decadic logarithm of the IC50, by convention in mol/L. Broadly, the viability, T/C is the result in the treated group divided by that in the control group, in per cent. In the case of `CC(C)n1nc(-c2ccc3oc(N)nc3c2)c2c(N)ncnc21` + CCn1c(-c2cc(N3CCN(C)CC3)cnc2C(C)OC)c2c3cc(ccc31)-c1csc(n1)CC(NC(=O)C1CC1C)C(=O)N1CCCC(N1)C(=O)OCC(C)(C)C2, the pIC50 is 7.55 (curve of first compound, second compound 0.000949 µM); 7.63 (curve of first compound, second compound 0.003 µM); 7.75 (curve of first compound, second compound 0.00949 µM); 7.86 (curve of first compound, second compound 0.03 µM); 8.04 (curve of first compound, second compound 0.0949 µM); 8.21 (curve of first compound, second compound 0.3 µM). Moreover, the viability, T/C runs as follows: (second compound 0.000949 µM, first compound 0.000316 µM) 73.8%; (second compound 0.000949 µM, first compound 0.001 µM) 74.5%; (second compound 0.000949 µM, first compound 0.00316 µM) 95.7%; (second compound 0.000949 µM, first compound 0.01 µM) 104%; (second compound 0.000949 µM, first compound 0.0316 µM) 46.1%; (second compound 0.000949 µM, first compound 0.1 µM) 24.8%. Besides, the viability, T/C is, setting by setting: (second compound 0.003 µM, first compound 0.000316 µM) 71.2%; (second compound 0.003 µM, first compound 0.001 µM) 74%; (second compound 0.003 µM, first compound 0.00316 µM) 69.9%; (second compound 0.003 µM, first compound 0.01 µM) 90.8%; (second compound 0.003 µM, first compound 0.0316 µM) 40.6%; (second compound 0.003 µM, first compound 0.1 µM) 22.1%. The viability, T/C (second compound 0.00949 µM, first compound 0.000316 µM) was 64.1%; the viability, T/C (second compound 0.00949 µM, first compound 0.001 µM) was 65.4%; the viability, T/C (second compound 0.00949 µM, first compound 0.00316 µM) is 76.6%; the viability, T/C (second compound 0.00949 µM, first compound 0.01 µM) was 75.4%; the viability, T/C (second compound 0.00949 µM, first compound 0.0316 µM) was 29.3%; the viability, T/C (second compound 0.00949 µM, first compound 0.1 µM) is 17.3%. In addition, the viability, T/C (second compound 0.03 µM, first compound 0.000316 µM) was 77.1%; the viability, T/C (second compound 0.03 µM, first compound 0.001 µM) was 92.2%; the viability, T/C (second compound 0.03 µM, first compound 0.00316 µM) was 110%; the viability, T/C (second compound 0.03 µM, first compound 0.01 µM) was 61.1%; the viability, T/C (second compound 0.03 µM, first compound 0.0316 µM) is 28%; the viability, T/C (second compound 0.03 µM, first compound 0.1 µM) is 16.2%. For the same compound, the viability, T/C is 103% (second compound 0.0949 µM, first compound 0.000316 µM); 102% (second compound 0.0949 µM, first compound 0.001 µM); 76.5% (second compound 0.0949 µM, first compound 0.00316 µM); 49.1% (second compound 0.0949 µM, first compound 0.01 µM); 22.3% (second compound 0.0949 µM, first compound 0.0316 µM); 13.6% (second compound 0.0949 µM, first compound 0.1 µM). For the same compound, the viability, T/C was 79.1% (second compound 0.3 µM, first compound 0.000316 µM); 92.5% (second compound 0.3 µM, first compound 0.001 µM); 60.3% (second compound 0.3 µM, first compound 0.00316 µM); 40.3% (second compound 0.3 µM, first compound 0.01 µM); 19.3% (second compound 0.3 µM, first compound 0.0316 µM); 11.7% (second compound 0.3 µM, first compound 0.1 µM).

For the compound `CC1(O)CCCC1n1c(=O)c(C(F)F)cc2cnc(NC3CCN(S(C)(=O)=O)CC3)nc21` (configuration not stated), the viability, T/C (compound 0.0316 µM) is 99.7% [middle of 4 runs] and the viability, T/C (compound 10 µM) was 3.53% [middle of 4 runs].

By IC50 is commonly meant the concentration that inhibits the measured activity by half. With `CCC(CC)c1cc(NC2CCC(N)C2)n2nccc2n1` (configuration not stated), the viability, T/C reads like this: (compound 0.0316 µM) 104% [middle of 4 runs]; (compound 0.1 µM) 87.1% [middle of 4 runs]; (compound 0.316 µM) 103% [middle of 4 runs]; (compound 1 µM) 86.7% [middle of 4 runs]; (compound 3.16 µM) 2.99% [middle of 4 runs]; (compound 10 µM) 1.41% [middle of 4 runs]. The IC50 (curve of compound) is 1.65 µM [middle of 4 runs].

In the case of `CCn1c(-c2cc(N3CCN(C)CC3)cnc2C(C)OC)c2c3cc(ccc31)-c1csc(n1)CC(NC(=O)C1CC1C)C(=O)N1CCCC(N1)C(=O)OCC(C)(C)C2` (configuration not stated), the viability, T/C is 81.8% [middle of 8 runs] (compound 0.000949 µM); 72.1% [middle of 8 runs] (compound 0.003 µM); 67.8% [middle of 8 runs] (compound 0.00949 µM); 107% [middle of 8 runs] (compound 0.0949 µM); 97.1% [middle of 7 runs] (compound 0.3 µM). Moreover, the pIC50 (compound alone, run of 08/26/2024) is under 6.52.
